From article PMC6308302, “Identification of Pharmacokinetic Markers for Guanxin Danshen Drop Pills in Rats by Combination of Pharmacokinetics, Systems Pharmacology, and Pharmacodynamic Assays” (Frontiers in Pharmacology, 2018)
Entries after “also recorded” stand apart in the source; their conditions may differ. Marks after values point to notes of the source that are not given here.

Legend:
[1] = Aqueous solubility test (vortexing in water); type: physicochemical; details: thermodynamic from solid; determined, water, 25 °C, 1 atm
Protocol: Aqueous solubility (S) test of the 17 ingredients was performed by vortexing 10 mg of each ingredient in […] water in a test tube at ambient temperature and 1 atm. After vortexing for 5 min, if the solution is clear, the tested object will be considered as soluble in water. In silico assessment of the physicochemical properties governing permeation and intestinal absorption was carried out for the 17 ingredients studied. Theory aqueous solubility (S) was calculated with ALOGPS 2.1 online software via the Virtual Computational Chemistry Laboratory service (Chemoinformatics Group, Neuherberg, Germany) (VCCLAB^1). The octanol–water partition coefficient (cLogP), the total hydrogen bond count (donors and acceptors), and topological polar surface area (TPSA) were determined using the Molinspiration Property Calculator (Molinspiration Cheminformatics, Bratislava, Slovak Republic^2). Lipinski’s rule of 5 was used to predict the permeability of the compound ([Lipinski et al., 2001]).

[2] = Multiple component PK study in rat plasma after p.o. GDDP (HPLC-MS); details: for AUC(0-inf) / AUC(0-t) / MRT inf / MRT last / Tmax / Cmax / half-life: Sprague-Dawley, rat, plasma, po
Caco-2 cell monolayers = details: ref Lu et al., 2008, Liu et al., 2009, Hu et al., 2014, Bowles et al., 2017, cited from earlier work
[3] = Stability tests in rat plasma (QC samples, HPLC-MS); details: n=5
From the text: Accuracy and precision were expressed by relative error (RE) and coefficient of variance (RSD), respectively.

[4] = system: isoprenaline-induced MI in mice; experiment: In vivo anti-MI study: isoprenaline-induced myocardial injury (ECG, H&E histology)
[5] = Caco-2 cell monolayers, from literature
[6] = 24h in auto-sampler vials, spiked 2 ng/mL
[7] = 24h in auto-sampler vials, spiked 400 ng/mL
[8] = 24h in auto-sampler vials, spiked 1600 ng/mL
[9] = Placing plasma for 6h at 4°C, spiked 2 ng/mL
[10] = Placing plasma for 6h at 4°C, spiked 400 ng/mL
[11] = Placing plasma for 6h at 4°C, spiked 1600 ng/mL
[12] = three freeze-thaw cycles, rat plasma, spiked 2 ng/mL
[13] = three freeze-thaw cycles, rat plasma, spiked 400 ng/mL
[14] = three freeze-thaw cycles, rat plasma, spiked 1600 ng/mL

CC(C)=CCC[C@](C)(O[C@@H]1O[C@H](CO)[C@@H](O)[C@H](O)[C@H]1O)[C@H]1CC[C@]2(C)[C@@H]1[C@H](O)C[C@@H]1[C@@]3(C)CC[C@H](O)C(C)(C)[C@@H]3[C@@H](O[C@@H]3O[C@H](CO)[C@@H](O)[C@H](O)[C@H]3O[C@@H]3OC[C@@H](O)[C@H](O)[C@H]3O)C[C@]12C [R1, notoginsenoside R1]
solubility at 5 min [1]: > 10 mg/mL | determination in rat plasma at the planned successive PK time points ([2]; GDDP 0.8 g/kg p.o., 5, 10, 15, 30, 45, 60, and 120 min, LOQ 1.0–1.4 ng/mL): could be determined | detection in rat plasma ([2]; GDDP 0.8 g/kg p.o., at 5, 10, 15, 30, 45, or 60 min, LOD 0.5–0.7 ng/mL): could be detected | AUC(0-inf) ([2]; 0.4 g/kg): 0.171 ± 0.0926 µg·h/mL | AUC(0-t) ([2]; 0.4 g/kg): 0.146 ± 0.0589 µg·h/mL | MRT inf ([2]; 0.4 g/kg): 78.6 ± 6.6 min | MRT last ([2]; 0.4 g/kg): 66 ± 7.2 min | Tmax ([2]; 0.4 g/kg): 30.6 ± 42 min | Cmax ([2]; 0.4 g/kg, Cmax, rat plasma, GDDP 0.4 g/kg p.o. (Low dose group), n=3): 0.167 ± 0.048 µg/mL | half-life ([2]; 0.4 g/kg, t1/2 β, rat plasma, GDDP 0.4 g/kg p.o. (Low dose group), n=3): 34.2 min | AUC(0-inf) ([2]; 0.8 g/kg): 0.168 ± 0.119 µg·h/mL | AUC(0-t) ([2]; 0.8 g/kg): 0.12 ± 0.117 µg·h/mL | MRT inf ([2]; 0.8 g/kg): 115 ± 95.4 min | MRT last ([2]; 0.8 g/kg): 53.4 ± 8.4 min | Tmax ([2]; 0.8 g/kg): 45 min | Cmax ([2]; 0.8 g/kg, Cmax (high / low plasma drug concentrations), rats, GDDP 0.4 and 0.8 g/kg p.o., classification): > 0.02 µg/mL | Cmax ([2]; 0.8 g/kg, Cmax, rat plasma, GDDP 0.8 g/kg p.o. (High dose group), n=3): 0.259 ± 0.342 µg/mL | half-life ([2]; 0.8 g/kg, t1/2 β (fast / slow elimination type), rats, GDDP 0.4 and 0.8 g/kg p.o., classification): < 120 min | half-life ([2]; 0.8 g/kg, t1/2 β, rat plasma, GDDP 0.8 g/kg p.o. (High dose group), n=3): 27 min | Cltot ([2]; rat plasma, GDDP 0.4 g/kg p.o. (Low dose group), n=3): 3.34 ± 1.81 L/h/kg | Cltot ([2]; rat plasma, GDDP 0.8 g/kg p.o. (High dose group), n=3): 10.89 ± 11.27 L/h/kg | Papp(apical→basolateral) (Caco-2 cell monolayers; [5]): > 0.1^c ×10^-6 cm/s | Papp(basolateral→apical) (Caco-2 cell monolayers; [5]): > 0.1^c ×10^-6 cm/s | apparent permeability in Caco-2 cell monolayers (Caco-2 cell monolayers; previous results): > 10^-7 cm/s | Stability: Measured [3, 6]: 1.89 ± 0.51 ng/mL | Stability: RE [3, 6]: -5.63% | Stability: Measured [3, 7]: 395.76 ± 7.32 ng/mL | Stability: RE [3, 7]: -1.06% | Stability: Measured [3, 8]: 1619.10 ± 82.22 ng/mL | Stability: RE [3, 8]: 1.19% | Stability: Measured [3, 9]: 1.75 ± 0.34 ng/mL | Stability: RE [3, 9]: -12.56% | Stability: Measured [3, 10]: 387.55 ± 18.40 ng/mL | Stability: RE [3, 10]: -3.11% | Stability: Measured [3, 11]: 1698.54 ± 105.94 ng/mL | Stability: RE [3, 11]: 6.16% | Stability: Measured [3, 12]: 2.15 ± 0.21 ng/mL | Stability: RE [3, 12]: 7.54% | Stability: Measured [3, 13]: 395.28 ± 15.09 ng/mL | Stability: RE [3, 13]: -1.18% | Stability: Measured [3, 14]: 1784.04 ± 71.20 ng/mL | Stability: RE [3, 14]: 11.50% | Histopathology of heart tissue (H&E) ([4]; 40 mg/kg p.o. for 7 days, isoprenaline-induced MI, 40 mg/kg): remarkably severe histological damage with extensive myocardial lysis and architecture wrecking; also recorded: extremely severe histological damage with extensive myocardial lysis and architecture wrecking | ECG (lead II) findings on the fifth day of the trial ([4]; 40 mg/kg p.o., isoprenaline 5 mg/kg on days 4 and 5): T waves reversed or decreased
